# In patent publication US8962003B2, “Insect behaviour modifying compounds” (The New Zealand Institute for Plant and Food Research …, priority 2003, dated 2015):
# Assays:
# Thrips tabaci = test: Field trials with baited water traps; format: in vivo; conditions: field trials (Table 1)
# Source text: (§1) Water traps were placed out into a field comprising several species of grasses, white clover (Trifolium repens L.) and several weed species (≈100 mm in height). Grass and cereal fields surrounded the field trial area on three sides and poplar (Poplar nigra L.) trees on the other, on the Canterbury Agricultural Research Centre campus. Each field trial consisted of five replicates of five treatments including a water control, positive control compound (ethyl nicotinate, ethyl isonicotinate, or benzaldehyde, Table 1) and three test compounds set out in the field in a grid (10×10 m) using a Latin square design with the trial area at least 100 m from the field boundary/shelter belt. White plastic containers (2 L capacity, 16×16×8.5 cm) containing approximately 1.7 L water, 0.4 ml of formalin (to prevent fungal growth) and 0.08 ml tween were placed above the crop canopy on inverted white (2 L capacity, 16×16×8.5 cm) or black plastic containers (24 cm diameter, 13 cm tall). For each treatment, 1 ml of a compound or water was added to a glass vial (12×32 mm screw thread vial) containing a 4.5 cm^2 piece of rolled filter paper (Whatman No. 1) that projected 1 cm above the top of the vial, creating a wick. The glass vial was suspended above the water in the centre of the trap using wire (0.5 mm diameter). The vials were removed after 24 or 48 h and the containers were sealed for transport to a laboratory. The contents from a water trap were poured through a sieve (250 μm mesh) and all insects were washed into a 50 ml Schott bottle within 24 h of collecting them from the field. All thrips were pipetted from each water trap sample and counted. Thrips were mounted on to slides using polyvinyl alcohol glue (1 part polyvinyl alchol: 4 parts water, 1 part lactic acid: 1.25 parts phenyl) from each trap using the following subsample method: less than 50 thrips, all thrips were mounted on to a slide; 50 to 100 thrips, a subsample of 25 thrips were mounted on to a slide; more than 100 thrips, a subsample of 50 thrips were mounted on to a slide. The slides were examined under 100× magnification using a compound microscope to identify thrips species. Subsampled thrips were sexed and identified to species according to Mound and Walker (Mound, L. A. and Walker, A. K. 1982. Terebrantia (Insecta: Thysanoptera). Fauna of New Zealand No. 1.). The mean number of each species for each treatment was calculated by multiplying the proportion of each species within a subsample with the total number of thrips counted in each water trap.
# [1] = tested on: Frankliniella occidentalis; test: Y-tube olfactometer bioassay; format: in vivo; conditions: for MAC (%) = Minimum Active Concentration to elicit a response from thrips (P < 0.05): 1 µl undiluted or diluted in hexane; for % Response: percentage of thrips to walk up odour-laden arm: same cell prints a '(t value)' in brackets; for Behaviour-modifying activity towards Frankliniella occidentalis (in words): text statements (Table 2)
# Experimental: The thrips behaviour-modifying activity of a compound may be evaluated in a glass Y-tube olfactometer following the method described by de Kogel et al. (de Kogel, W. J., Koschier, E. H. and Visser, J. H. Proc. Exper. & Appl. Entomol., N. E. V. Amsterdam, (1999) 10, 131-135.) and Koschier et al. (Koschier, E. H., De Kogel, W. J. and Visser, J. H. (2000) Jounrnal of Chemical Ecology, 26, 2643-2655).
# The olfactory behaviour of thrips toward volatile compounds was evaluated in a glass Y-tube olfactometer following the method described by de Kogel et al. (de Kogel, W. J., Koschier, E. H. and Visser, J. H. Proc. Exper. & Appl. Entomol., N. E. V. Amsterdam, (1999) 10, 131-135.) and Koschler et al. (Koschier, E. H., De Kogel, W. J. and Visser, J. H. (2000) Journal of Chemical Ecology, 26, 2643-2655.). The Y-tube has two branching arms at an angle of 45° leading into a single tube, all 60 mm long, with an internal diameter of 5 mm. The arms of the Y-tube were connected to glass Wheaton Micro Kit® adapters that were in turn attached to 4 ml glass vials each containing a 1 cm^2 piece of filter paper (Whatman No. 1). The Y-tube and Wheaton apparatus were placed in a grey-box (to prevent external stimuli influencing thrips' behaviour), located in a darkened, air-conditioned room (22±3° C.). The Y-tube was placed at an inclining position of 25° between the Y-tube and horizontal plane and illuminated from above by a halogen lamp (780 lux). One microliter of the volatile compounds, either undiluted or diluted in hexane (95%, Pronalys AR), was applied to filter paper in one vial, while 1 μl of hexane was applied to filter paper held in the second vial. Air was drawn through activated charcoal before entering the Wheaton apparatus and Y-tube using a suction pump (AR Harris Co. Ltd, Christchurch) producing an airflow of 5 cm/s through each arm and 10 cm/s at the base of the Y-tube. Air was drawn through for 30 min before introducing the first thrips. Connections between the activated charcoal, Wheaton apparatus, Y-tube and suction pump consisted of silicone tubing.
# An individual female Frankliniella occidentalis thrips of unknown age, that had been starved overnight, was released into the Y-tube using a small aspirator. The aspirator was made by placing a 1 ml pipette tip over the end of silicone tubing (5 mm diameter) the end of which was covered with fine mesh; the pipette tip was cut so it projected 5 mm beyond the end of the silicone tubing. A thrips was sucked up into the pipette tip, which was then placed at the base of the Y-tube. Most thrips walked up into the Y-tube within a few seconds, at which time the silicone air suction tubing was reconnected to the glass Y. The choice between clean or odour laden airflow was recorded when the thrips reached the far end of one arm and only those thrips that made the choice within 3 min were recorded. After every 5 thrips the Y-tube and Wheaton apparatus were rotated […] to avoid position effects. After 25 choices were recorded, the Y-tube and Wheaton apparatus were thoroughly cleaned with acetone (99.5%, BDH) and allowed to dry before repeating the experiment. Each compound and dilution was replicated 3 times.
# Thrips obscuratus = test: Field trials with baited water traps; format: in vivo; conditions: for Average ratio of female thrips caught relative to water traps (95% CI): female Thrips obscuratus, field water traps, 1 ml compound, 24 or 48 h, * = P < 0.05 vs control trap, brackets = backtransformed 95% CI
# Source text: as §1
# [2] = tested on: Frankliniella occidentalis; conditions: MacDonald et al. 2002; cited from earlier work
# [3] = tested on: Frankliniella occidentalis; test: Greenhouse trials with water traps or yellow sticky traps; format: in vivo; conditions: 24 h, capsicum greenhouse, t-value in brackets in same cell
# Source text: Greenhouse trials were undertaken using water traps similar to those used in the field trials (Example 2), or yellow sticky traps (Veg-Gro Supplies Ltd, Auckland) to examine the response of thrips to volatile compounds. The greenhouse, located in Auckland, is ≈88×200 m, constructed of glass, and is used to grow capsicum (Capsicum annuum var. Special, Fiesta, Boogie and Stirit). Water traps were placed 20 to 24 m apart within a row and 24 m apart between rows. There were 6 baited water traps for each compound tested and 6 water-only traps randomly positioned in a 6×2 grid in the greenhouse. Traps were positioned just above the crop canopy. Water traps (2 L containers, 16×16×8.5 cm) were assembled as described in Example 2 and left in the greenhouse for 24 h, after which time the containers were sealed for transport to a laboratory. Insects from each water trap were transferred to 5 ml glass tubes containing 75% ethanol within 24 h of collecting them from the greenhouse. Catches from each treatment were analysed under a stereomicroscope (100×) and the proportion of Frankliniella occidentalis was determined.
# Yellow sticky traps (24.4×20 cm) were treated with a compound or water using a 30 ml spray mist dripulator (Arthur Holmes, Wellington) held 10 cm away from the sticky trap. Four sprays were applied to each side, coating the sticky trap in approximately 1 ml of water or compound. Sticky traps sprayed with the same treatment were separated using black metal foldback clips (19 mm, Celco), suspended within a cardboard box (29.5×22.3×30.2 cm), which was in turn sealed within a plastic bag for transport to the greenhouse. Traps were suspended in the greenhouse just above the crop canopy within 3 h after spraying, using the same layout as for the water traps (20 to 24 m apart within a row, 24 m between rows, in a 6×2 grid). After 24 h the traps were collected by wrapping each trap in plastic wrap for transport to the laboratory. The total number of thrips on the traps were counted using 10× magnification. Thrips were removed from the sticky traps using De-Solv-it® and Johnsons baby oil®. A subsample from each treatment was further analysed under a stereomicroscope (100×) and the proportion of Frankliniella occidentalis was determined.
# [4] = female Frankliniella occidentalis
# [5] = Yellow sticky trap, about 1 ml sprayed, >95% of thrips caught were Frankliniella occidentalis
# [6] = female Frankliniella occidentalis, Y-tube
# [7] = Water trap, around 66% of thrips caught were Frankliniella occidentalis
Structure (SMILES),"MAC (%) = Minimum Active Concentration to elicit a response from thrips (P < 0.05) [1, 4] [%]","% Response: percentage of thrips to walk up odour-laden arm [1, 4]",Behaviour-modifying activity towards Frankliniella occidentalis (in words) [1],further results
CCC(=O)c1ccncc1 [Ethyl 4-pyridyl ketone],1,68.0 (0.001) %,,Attractancy to Thrips tabaci (in words) (Thrips tabaci): attractants
C=C(C)CCOC(=O)c1ccncc1 [isopentenyl isonicotinate],,,not found to be significantly attractive or repulsive,
CC(C)OC(=O)c1ccncc1 [Isopropyl isonicotinate],1,66.7 (0.002) %,,
CCCCCCCCCCOC(=O)c1ccncc1 [Decyl isonicotinate],,,,"Average ratio of female thrips caught relative to water traps (95% CI) (Thrips obscuratus): 14.9 (0.3, 739.5)"
CCCOC(=O)c1ccncc1 [n-Propyl isonicotinate],0.1,61.3 (0.026) %,,
O=Cc1ccncc1 [4-Formylpyridine],0.001,66.7 (0.002) %,,"Comment: concentration above which the compound is repellant ([1]; female Frankliniella occidentalis, Y-tube, no unit in the cell (MAC column is in %)): Repellant > 0.01; Activity towards Frankliniella occidentalis at high concentration ([1]; high concentration): repellant; Activity towards Frankliniella occidentalis at low concentration ([1]; low concentration): attractant"
"CC(C)N(C(=O)c1ccncc1)C(C)C [Di-iso-Propyl isonicotinate, diisopropyl isonicotinamide]",<100,81.3 (<0.001) %,attractant,
CCCCCCCCCCCCOC(C)=O [dodecyl acetate],,,,"Repellant activity towards Frankliniella occidentalis (literature, alarm pheromones) [2]: repellant activity"
CCOC(=O)c1ccnc(Cl)c1 [Ethyl 2-chloro-isonicotinate],0.0001,65.3 (0.005) %,strong attractant,"Average ratio of thrips caught relative to water treated traps [3, 5]: 1.8 (2.8)"
N#Cc1ccncc1 [4-Cyanopyridine],<100,38.7 (0.026) %,thrips-repellant activity,"Comment (repellant) [1, 6]: Repellant"
CCCCCCOC(=O)c1ccncc1 [hexyl isonicotinate],,,,Attractancy to Thrips tabaci (in words) (Thrips tabaci): not found to be significantly attractive; Attractancy to Thrips obscuratus (in words) (Thrips obscuratus): not found to be significantly attractive
CCCCCCCCCCOC(C)=O [Decyl acetate],,,,"Repellant activity towards Frankliniella occidentalis (literature, alarm pheromones) [2]: repellant activity"
"c1cc(C2OCCO2)ccn1 [Pyridine, 4-(1,3-dioxalan-2-yl), 4-(1,3-Dioxolan-2-yl)pyridine]",1,,,"Average ratio of female thrips caught relative to water traps (95% CI) (Thrips obscuratus): 16.6 (0.3, 827.2)"
CCCC(=O)c1ccncc1 [n-Propyl 4-pyridyl ketone],100,54.7 (0.282) %,attractant,
CC(=O)Sc1ccncc1 [4-Pyridyl thioacetate],<100,26.7 (<0.001) %,thrips-repellant activity,"Comment (repellant) [1, 6]: Repellant"
COC(=O)c1ccncc1 [Methyl isonicotinate],0.0001,74.7 (<0.001) %,,"Average ratio of thrips caught relative to water treated traps [3, 7]: 4.3 (5.7); Average ratio of thrips caught relative to water treated traps [3, 5]: 3.7 (8.1)"
CCOC(=O)c1ccncc1 [Ethyl isonicotinate],0.001,60.0 (0.043) %,,"Average ratio of thrips caught relative to water treated traps [3, 7]: 2.2 (2.8); Average ratio of thrips caught relative to water treated traps [3, 5]: 2.6 (3.9)"
